Experimental data as given in ChEMBL document CHEMBL4043190 (Bioorg Med Chem Lett, 2017).

Tests used:
Mus musculus [1] = experiment: Antiinflammatory activity in IMQ-induced BALB/c mouse model assessed as reduction in serum IL-17F production at 30 mg/kg, po bid for 5 days; format: functional; parameters: scale not given: the % may be the effect or the level left
Mus musculus [2] = experiment: Antiinflammatory activity in IMQ-induced BALB/c mouse model assessed as reduction in serum IL-17F production at 100 mg/kg, po bid for 5 days; format: functional; parameters: scale not given: the % may be the effect or the level left
[3] = Protein binding in rat plasma; format: ADME, cell-free; conditions: read-out: PPB (converted)
[4] = target: Non-receptor tyrosine-protein kinase TYK2 (Homo sapiens, UniProt P29597); experiment: Inhibition of TYK2 (unknown origin) by biochemical assay
[5] = Protein binding in mouse plasma; format: ADME, cell-free; conditions: read-out: PPB (converted)
[6] = Ratio of unbound drug concentration in IL-23/IL-1beta induced C57BL/6J mouse plasma at 30 mg/kg, po to EC50 for TYK2 (unknown origin) assessed as inhibition of IL-23 induced STAT3 phosphorylation
[7] = Ratio of unbound drug concentration in IL-23/IL-1beta induced C57BL/6J mouse plasma at 70 mg/kg, po to EC50 for TYK2 (unknown origin) assessed as inhibition of IL-23 induced STAT3 phosphorylation
Mus musculus [8] = experiment: Antiinflammatory activity in IMQ-induced BALB/c mouse model assessed as reduction in serum IL-17F production administered po bid for 5 days; format: functional, organism-based
Mus musculus [9] = experiment: Anti-inflammatory activity in IL-23/IL-1beta induced C57BL/6J mouse assessed as inhibition of IL-17F level in serum at 70 mg/kg, po pretreated for 30 mins followed by cytokine addition measured after 3 hrs by ELISA relative to control; format: functional
[10] = target: Tyrosine-protein kinase JAK2 (Homo sapiens, UniProt O60674); experiment: Inhibition of JAK2 (unknown origin) by biochemical assay
[11] = target: Tyrosine-protein kinase JAK1 (Homo sapiens, UniProt P23458); experiment: Inhibition of JAK1 (unknown origin)
Mus musculus [12] = experiment: Anti-inflammatory activity in IL-23/IL-1beta induced C57BL/6J mouse assessed as inhibition of IL-17F level in serum at 30 mg/kg, po pretreated for 30 mins followed by cytokine addition measured after 3 hrs by ELISA relative to control; format: functional
[13] = Clearance in rat; format: ADME; conditions: in vivo
Mus musculus [14] = experiment: Anti-inflammatory activity in IL-23/IL-1beta induced C57BL/6J mouse assessed as inhibition of IL-17F level in serum pretreated po for 30 mins followed by cytokine addition measured after 3 hrs by ELISA; format: functional, organism-based
[15] = target: T1, Cyclin-dependent kinase 2 (Homo sapiens, UniProt P24941); experiment: Inhibition of CDK2 (unknown origin)
[16] = target: Substance-P receptor (Homo sapiens) (UniProt P25103); experiment: Inhibition of NK1 (unknown origin) at 10 uM relative to control
[17] = Permeability from apical side to basolateral side in MDCK cells; format: ADME, cell-based, Canis lupus familiaris; conditions: dog, read-out: permeability
[18] = target: T1, Cyclin-dependent kinase 2; conditions: 70 nM
Homo sapiens = organism: Homo sapiens; experiment: Selectivity ratio of Ki for JAK2 (unknown origin) to Ki for TYK2 (unknown origin)

Tyrosine-protein kinase JAK2, sequence (O60674 whole entry): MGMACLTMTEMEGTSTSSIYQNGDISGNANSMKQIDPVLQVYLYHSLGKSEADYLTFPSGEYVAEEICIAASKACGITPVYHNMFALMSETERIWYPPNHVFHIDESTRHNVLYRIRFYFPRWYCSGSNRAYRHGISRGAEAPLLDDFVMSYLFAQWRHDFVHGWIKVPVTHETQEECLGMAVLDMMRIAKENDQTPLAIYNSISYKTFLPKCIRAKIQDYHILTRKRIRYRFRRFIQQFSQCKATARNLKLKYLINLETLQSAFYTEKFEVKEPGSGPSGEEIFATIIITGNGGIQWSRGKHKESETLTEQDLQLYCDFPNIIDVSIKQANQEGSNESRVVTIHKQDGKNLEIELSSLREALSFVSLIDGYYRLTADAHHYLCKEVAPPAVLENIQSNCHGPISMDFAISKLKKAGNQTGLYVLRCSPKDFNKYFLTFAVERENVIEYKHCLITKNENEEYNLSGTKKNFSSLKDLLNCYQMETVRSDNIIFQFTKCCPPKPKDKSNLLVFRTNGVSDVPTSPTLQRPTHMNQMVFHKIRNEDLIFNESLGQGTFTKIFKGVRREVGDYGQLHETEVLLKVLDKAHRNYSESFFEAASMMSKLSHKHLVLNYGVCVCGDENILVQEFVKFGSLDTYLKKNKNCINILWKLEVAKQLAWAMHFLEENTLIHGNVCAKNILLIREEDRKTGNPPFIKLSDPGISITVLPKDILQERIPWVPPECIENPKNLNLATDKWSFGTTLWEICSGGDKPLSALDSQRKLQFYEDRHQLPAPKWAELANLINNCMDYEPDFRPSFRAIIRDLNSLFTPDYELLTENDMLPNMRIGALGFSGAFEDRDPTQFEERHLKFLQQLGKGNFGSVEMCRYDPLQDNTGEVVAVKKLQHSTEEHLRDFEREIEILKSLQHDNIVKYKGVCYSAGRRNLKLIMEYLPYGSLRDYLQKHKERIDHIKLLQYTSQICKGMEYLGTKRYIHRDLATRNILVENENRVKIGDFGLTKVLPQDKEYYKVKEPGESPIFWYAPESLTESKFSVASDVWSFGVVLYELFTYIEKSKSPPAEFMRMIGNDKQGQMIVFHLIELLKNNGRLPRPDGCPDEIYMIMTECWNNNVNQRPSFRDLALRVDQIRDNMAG
Substance-P receptor (Homo sapiens), sequence (P25103 whole entry): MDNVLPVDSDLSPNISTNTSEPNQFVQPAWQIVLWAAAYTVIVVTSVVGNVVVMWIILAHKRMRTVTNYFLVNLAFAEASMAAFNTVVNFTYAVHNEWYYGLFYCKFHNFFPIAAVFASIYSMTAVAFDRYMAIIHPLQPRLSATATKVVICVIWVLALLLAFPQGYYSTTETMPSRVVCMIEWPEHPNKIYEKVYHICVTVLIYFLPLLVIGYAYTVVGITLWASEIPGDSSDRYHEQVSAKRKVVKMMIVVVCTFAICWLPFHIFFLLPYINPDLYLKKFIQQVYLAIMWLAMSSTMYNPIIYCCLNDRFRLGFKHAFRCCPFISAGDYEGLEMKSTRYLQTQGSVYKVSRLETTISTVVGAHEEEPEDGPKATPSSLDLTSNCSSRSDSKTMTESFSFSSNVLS
Tyrosine-protein kinase JAK1, sequence (P23458 whole entry): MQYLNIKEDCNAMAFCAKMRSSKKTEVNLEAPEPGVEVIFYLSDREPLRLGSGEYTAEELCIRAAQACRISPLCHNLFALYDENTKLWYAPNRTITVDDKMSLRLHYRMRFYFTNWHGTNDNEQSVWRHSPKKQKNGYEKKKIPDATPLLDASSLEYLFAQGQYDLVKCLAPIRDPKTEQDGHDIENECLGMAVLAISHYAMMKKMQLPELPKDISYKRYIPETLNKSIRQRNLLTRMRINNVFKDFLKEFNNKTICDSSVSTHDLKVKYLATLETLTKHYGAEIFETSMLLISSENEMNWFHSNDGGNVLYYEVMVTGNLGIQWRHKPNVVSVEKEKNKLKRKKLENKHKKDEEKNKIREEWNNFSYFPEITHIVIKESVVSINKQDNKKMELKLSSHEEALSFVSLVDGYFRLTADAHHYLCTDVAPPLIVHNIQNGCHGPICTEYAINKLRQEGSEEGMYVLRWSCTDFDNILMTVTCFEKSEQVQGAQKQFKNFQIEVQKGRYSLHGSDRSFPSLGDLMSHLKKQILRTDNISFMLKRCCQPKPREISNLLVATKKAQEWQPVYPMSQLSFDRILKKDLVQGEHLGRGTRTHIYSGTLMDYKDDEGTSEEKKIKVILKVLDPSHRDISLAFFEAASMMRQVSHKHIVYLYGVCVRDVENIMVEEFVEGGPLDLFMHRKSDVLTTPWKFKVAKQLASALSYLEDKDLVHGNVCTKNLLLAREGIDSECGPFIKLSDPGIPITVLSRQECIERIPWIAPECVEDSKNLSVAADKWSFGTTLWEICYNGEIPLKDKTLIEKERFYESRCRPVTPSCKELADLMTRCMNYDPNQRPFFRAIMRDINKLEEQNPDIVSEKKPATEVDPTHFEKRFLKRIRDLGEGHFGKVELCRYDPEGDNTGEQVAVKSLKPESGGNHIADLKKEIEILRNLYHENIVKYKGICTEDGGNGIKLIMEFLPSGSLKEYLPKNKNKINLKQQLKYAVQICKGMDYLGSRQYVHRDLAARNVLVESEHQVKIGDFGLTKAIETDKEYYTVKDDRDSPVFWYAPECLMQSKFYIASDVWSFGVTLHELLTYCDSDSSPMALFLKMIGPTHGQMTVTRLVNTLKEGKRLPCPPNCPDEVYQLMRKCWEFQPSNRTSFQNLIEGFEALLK
Non-receptor tyrosine-protein kinase TYK2, sequence (P29597 whole entry): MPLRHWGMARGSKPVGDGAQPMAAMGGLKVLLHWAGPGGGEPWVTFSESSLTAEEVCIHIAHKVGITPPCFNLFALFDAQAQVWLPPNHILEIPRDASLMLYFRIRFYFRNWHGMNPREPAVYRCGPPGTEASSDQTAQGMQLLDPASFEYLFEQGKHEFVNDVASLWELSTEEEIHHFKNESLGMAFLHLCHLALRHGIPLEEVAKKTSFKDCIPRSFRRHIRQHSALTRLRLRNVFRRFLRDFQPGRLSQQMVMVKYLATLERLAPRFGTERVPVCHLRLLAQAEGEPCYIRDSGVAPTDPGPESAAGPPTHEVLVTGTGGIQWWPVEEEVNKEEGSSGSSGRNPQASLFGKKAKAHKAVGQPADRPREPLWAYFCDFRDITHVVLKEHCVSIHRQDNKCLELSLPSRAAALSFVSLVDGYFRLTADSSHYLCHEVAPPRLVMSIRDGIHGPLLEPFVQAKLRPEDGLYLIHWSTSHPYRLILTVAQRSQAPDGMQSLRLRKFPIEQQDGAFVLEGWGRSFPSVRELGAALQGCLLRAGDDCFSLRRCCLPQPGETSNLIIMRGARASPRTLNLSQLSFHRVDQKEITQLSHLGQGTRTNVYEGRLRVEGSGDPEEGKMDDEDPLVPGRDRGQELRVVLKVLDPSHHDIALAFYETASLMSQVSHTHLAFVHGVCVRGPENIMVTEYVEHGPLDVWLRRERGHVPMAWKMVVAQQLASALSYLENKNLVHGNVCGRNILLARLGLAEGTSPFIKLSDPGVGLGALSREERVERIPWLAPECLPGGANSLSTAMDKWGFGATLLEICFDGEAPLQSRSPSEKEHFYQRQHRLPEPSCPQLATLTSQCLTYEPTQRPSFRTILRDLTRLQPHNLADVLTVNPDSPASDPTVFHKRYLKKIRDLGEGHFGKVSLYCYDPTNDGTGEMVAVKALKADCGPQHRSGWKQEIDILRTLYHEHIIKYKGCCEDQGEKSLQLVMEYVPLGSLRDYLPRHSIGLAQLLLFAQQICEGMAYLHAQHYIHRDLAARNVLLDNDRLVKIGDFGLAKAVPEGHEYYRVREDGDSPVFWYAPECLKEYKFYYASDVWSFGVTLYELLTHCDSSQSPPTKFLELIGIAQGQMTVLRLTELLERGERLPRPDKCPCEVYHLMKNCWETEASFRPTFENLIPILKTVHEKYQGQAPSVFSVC

fraction unbound [3]: 0.039 | Ki [4]: 0.7 nM | fraction unbound [5]: 0.034 | Ki [10]: 22 nM | Ki [11]: 24 nM | clearance [13]: 5.1 mL/min/kg | Ki [15]: 89 nM | inhibition [16]: 67% | Papp A→B [17]: 12.7 ×10⁻⁶ cm/s | inhibition [18]: > 50% | Ratio Ki (Homo sapiens): 31
Compound: Cc1cc(Nc2nccc3nc(-c4c(Cl)cc(C#N)cc4Cl)[nH]c23)ncn1
Activity (Mus musculus [1]): 74% | Activity (Mus musculus [2]): 99% | Ratio [6]: 13 | Ratio [7]: 23 | inhibition (Mus musculus [8]): Dose-dependent effect | inhibition in vivo at 70 mg/kg (Mus musculus [9]): 72% | inhibition in vivo at 30 mg/kg (Mus musculus [12]): 30% | inhibition (Mus musculus [14]): Dose-dependent effect
